Measurements as given in article PMC8224985 (European journal of medicinal chemistry, 2020).

Key:
SphK2 [1] = conditions: read-out: SphK2 Ki; cited from earlier work
human SphK2 = target: T1, human SphK2 (Homo sapiens, UniProt Q9NRA0); experiment: Recombinant hSphK2 activity, single-concentration screen; conditions: for inhibition at 0.3 µM: read-out: inhibition of hSphK2 activity, compound 0.3 μM
T1 sequence (Q9NRA0 1-654): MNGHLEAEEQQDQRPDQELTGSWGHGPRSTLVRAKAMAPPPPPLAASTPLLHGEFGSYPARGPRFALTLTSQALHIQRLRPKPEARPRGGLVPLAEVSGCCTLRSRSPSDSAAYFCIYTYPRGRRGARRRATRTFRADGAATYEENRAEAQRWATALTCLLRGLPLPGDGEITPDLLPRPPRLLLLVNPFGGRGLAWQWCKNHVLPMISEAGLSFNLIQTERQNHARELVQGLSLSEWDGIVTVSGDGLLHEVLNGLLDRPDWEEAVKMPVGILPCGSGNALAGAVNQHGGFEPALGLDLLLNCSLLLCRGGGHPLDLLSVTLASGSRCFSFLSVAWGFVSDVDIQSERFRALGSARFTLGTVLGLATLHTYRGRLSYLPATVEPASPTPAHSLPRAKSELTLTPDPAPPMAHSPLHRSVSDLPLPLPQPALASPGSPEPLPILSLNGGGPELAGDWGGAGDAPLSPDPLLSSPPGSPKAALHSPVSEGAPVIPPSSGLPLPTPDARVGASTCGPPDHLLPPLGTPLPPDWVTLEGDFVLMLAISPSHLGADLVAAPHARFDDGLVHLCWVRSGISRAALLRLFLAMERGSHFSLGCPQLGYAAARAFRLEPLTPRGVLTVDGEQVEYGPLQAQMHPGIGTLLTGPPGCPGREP

U937 cells = experiment: S1P levels in U937 cells by LC-MS/MS; assay type: cell-based; conditions: 0.1 to 1 μM, 2 hours, duplicate
SphK2 [2] = experiment: FTY720-P formation in U937 cells treated with FTY720; assay type: cell-based; conditions: 1 μM FTY720, compound 0.1 μM to 1 μM, 2 hours, duplicate
human SphK1 = human SphK1 (Homo sapiens, UniProt Q9NYA1); experiment: Recombinant hSphK1 activity, single-concentration screen; conditions: compound 1 μM
Sequence of human SphK1 (Q9NYA1 whole entry): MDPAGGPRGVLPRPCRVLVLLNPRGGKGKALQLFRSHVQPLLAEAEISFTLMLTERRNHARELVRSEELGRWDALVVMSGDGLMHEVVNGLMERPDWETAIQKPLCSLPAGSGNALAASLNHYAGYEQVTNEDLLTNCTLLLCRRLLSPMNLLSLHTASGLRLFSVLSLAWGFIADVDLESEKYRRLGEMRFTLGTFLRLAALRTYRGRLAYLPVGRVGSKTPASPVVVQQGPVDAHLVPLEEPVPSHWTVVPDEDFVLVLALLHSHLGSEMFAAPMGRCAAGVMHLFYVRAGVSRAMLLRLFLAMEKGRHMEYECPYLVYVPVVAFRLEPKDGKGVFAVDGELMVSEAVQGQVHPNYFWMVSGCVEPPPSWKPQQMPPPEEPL

Compound	inhibition at 0.3 µM (human SphK2)	also measured
O=C(NCc1ccncc1)C12CC3CC(C1)CC(c1ccc(Cl)cc1)(C3)C2 [ABC294640]		Ki (SphK2 [1]): 10 µM
CCCCCCCCCCn1cc(-c2noc([C@@H]3CCCN3C(=N)N)n2)c2ccccc21 [Compound 6h, (S)-Amino(2-(3-(1-decyl-1H-indol-3-yl)-1,2,4-oxadiazol-5-yl)pyrrolidin-1-yl)methaniminium chloride]	> 50%	
CCCCCCCCCCCCn1cc(-c2noc([C@@H]3CCCN3C(=N)N)n2)c2ccccc21 [Compound 6j, (S)-Amino(2-(3-(1-dodecyl-1H-indol-3-yl)-1,2,4-oxadiazol-5-yl)pyrrolidin-1-yl)methaniminium chloride]	> 50%	
CCCCCCCCCCn1ccc2c(-c3noc([C@@H]4CCCN4C(=N)N)n3)cccc21 [Compound 6n, (S)-Amino(2-(3-(1-decyl-1H-indol-4-yl)-1,2,4-oxadiazol-5-yl)pyrrolidin-1-yl)methaniminium chloride]	36%	
CCCCCCCCCn1ccc2cc(-c3noc([C@@H]4CCCN4C(=N)N)n3)ccc21.Cl [Compound 6r, (S)-Amino(2-(3-(1-nonyl-1H-indol-5-yl)-1,2,4-oxadiazol-5-yl)pyrrolidin-1-yl)methaniminium chloride]		S1P levels in cells (U937 cells): dose-dependent decrease; FTY720-P levels in cells (SphK2 [2]): concomitant decrease in FTY720-P in a dose dependent manner
CCCCCCCCCCn1ccc2cc(-c3noc([C@@H]4CCCN4C(=N)N)n3)ccc21 [Compound 6s, (S)-Amino(2-(3-(1-decyl-1H-indol-5-yl)-1,2,4-oxadiazol-5-yl)pyrrolidin-1-yl)methaniminium chloride]	70%	
CCCCCCCCCCn1ccc2ccc(-c3noc([C@@H]4CCCN4C(=N)N)n3)cc21 [Compound 6w, (S)-Amino(2-(3-(1-decyl-1H-indol-6-yl)-1,2,4-oxadiazol-5-yl)pyrrolidin-1-yl)methaniminium chloride]	32%	
CCCCCCCCCn1cc(-c2noc(C[C@@H]3CCCN3C(=N)N)n2)c2ccccc21.Cl [Compound 11, (S)-Amino(2-((3-(1-nonyl-1H-indol-3-yl)-1,2,4-oxadiazol-5-yl)methyl)pyrrolidin-1-yl)methaniminium chloride]		effect on hSphK1 activity (in words) (human SphK1): inactive; effect on hSphK2 activity (in words) (human SphK2; compound 0.3 μM): inactive
